Paper PMC4207660, “Identification and Characterization of Hundreds of Potent and Selective Inhibitors of Trypanosoma brucei Growth from a Kinase-Targeted Library Screening Campaign” (PLoS Neglected Tropical Diseases, 2014)

Tests used:
JAK3 = target: T1, JAK3 (Homo sapiens, UniProt P52333); assay: Human kinase selectivity screening: JAK3; format: biochemical; settings: read-out: JAK3 pIC50 values (converted)
T1 sequence (P52333 1-1124): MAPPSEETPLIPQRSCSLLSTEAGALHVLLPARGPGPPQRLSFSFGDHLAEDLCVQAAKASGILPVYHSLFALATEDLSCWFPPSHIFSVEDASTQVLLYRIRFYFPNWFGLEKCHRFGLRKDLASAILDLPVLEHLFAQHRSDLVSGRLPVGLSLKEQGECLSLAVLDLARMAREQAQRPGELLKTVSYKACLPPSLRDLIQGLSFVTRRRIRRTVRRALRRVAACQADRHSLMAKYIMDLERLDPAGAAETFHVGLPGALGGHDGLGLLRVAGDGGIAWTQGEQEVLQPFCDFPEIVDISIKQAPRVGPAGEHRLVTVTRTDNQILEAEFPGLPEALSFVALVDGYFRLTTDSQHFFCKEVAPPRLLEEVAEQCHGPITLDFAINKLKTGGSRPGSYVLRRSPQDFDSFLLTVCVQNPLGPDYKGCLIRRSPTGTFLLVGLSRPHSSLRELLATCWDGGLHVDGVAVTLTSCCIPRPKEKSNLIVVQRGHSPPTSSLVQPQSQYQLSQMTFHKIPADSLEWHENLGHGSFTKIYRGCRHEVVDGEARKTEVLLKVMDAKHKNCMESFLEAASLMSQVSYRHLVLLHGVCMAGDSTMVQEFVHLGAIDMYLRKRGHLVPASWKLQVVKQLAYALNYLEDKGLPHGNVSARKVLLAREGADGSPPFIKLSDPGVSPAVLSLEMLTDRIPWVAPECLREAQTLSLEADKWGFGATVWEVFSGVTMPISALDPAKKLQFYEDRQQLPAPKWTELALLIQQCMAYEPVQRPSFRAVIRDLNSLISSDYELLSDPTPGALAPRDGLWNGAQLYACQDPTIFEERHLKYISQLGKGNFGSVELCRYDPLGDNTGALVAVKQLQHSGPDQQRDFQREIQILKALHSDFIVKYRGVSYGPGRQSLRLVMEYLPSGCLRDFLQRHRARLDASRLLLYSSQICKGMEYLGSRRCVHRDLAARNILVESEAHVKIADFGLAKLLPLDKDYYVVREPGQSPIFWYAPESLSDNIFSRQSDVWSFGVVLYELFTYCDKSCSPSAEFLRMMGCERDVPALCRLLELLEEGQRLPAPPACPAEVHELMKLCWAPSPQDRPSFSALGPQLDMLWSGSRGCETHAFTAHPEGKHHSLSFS
Text: These kinases were chosen for general selectivity screening owing to their broad representation of the human kinome.

[1] = GSK in-house artificial membrane permeability assay; format: in vitro ADME; settings: PAMPA, pH 7.4, Measured
Experimental: 250 µL and 100 µL 50 mM phosphate buffer pH 7.4 with 0.5% encapsin was applied to the donor and receiver compartments, respectively. 2.5 µL of a 10 mM stock solution of compound in DMSO was added to the donor compartment. The assay was incubated at RT for 3 hours. […] The permeability (logPapp) measures how fast molecules pass through the lipid membrane is expressed in nm/s.

Structure (SMILES) | IC50 (JAK3) [nM] | Papp at 3 h, 100 µM [1] [×10⁻⁶ cm/s]
O=S1(=O)Cc2ccc(Nc3nccc(-c4ccc(F)cc4)n3)cc2C1 [NEU-0001142] | 631 | 7.7
CN(C)Cc1ccc(-c2[nH]c3ncc(C#N)cc3c2-c2ccccc2)cc1 [NEU-0001206] | 501 | 46
CCCCc1nc(Nc2cccc(C)c2)c2c(=O)[nH]ccc2n1 [NEU-0001191] | 200 | 
Cn1cc(-c2cnc3[nH]cc(-c4cccc(C#N)c4)c3c2)cn1 [NEU-0001207] | 631 | 23
O=C(Nc1ccc(-c2ccnc3[nH]ccc23)s1)C1(Cc2ccccc2)CCCNC1 (stereo not shown) [NEU-0001240] | 501 | 18
Cc1cc(Nc2cc(C3CC3)[nH]n2)nc(N2CCCCC2)n1 [NEU-0001127] | 631 | 38
CCCNc1nc(Nc2cnn(C)c2)c2c(=O)[nH]ccc2n1 [NEU-0001187] | 2.51 | 33
